From publication PMC3534098 (PLoS ONE, 2012) come the findings set out here.

The experiment relates to M. bovis BCG resistant mutants. Format: cell-based, Mycobacterium bovis BCG.
With `Cc1ccc2nc(C)c(C(=O)NCc3cccs3)n2c1` [IP 1], the “viability of M. bovis BCG mutants raised against other IP family members” value was “viable”.
Under `Cc1ccc2nc(C)c(C(=O)NCc3ccc(Cl)nc3)n2c1` [IP 4, N-((6-Chloropyridin-3-yl)methyl)-2,6-dimethylimidazo[1,2-a]pyridine-3-carboxamide] stands “viable”; under `Cc1ccc2nc(C)c(C(=O)NCc3ccc(C(F)(F)F)cc3)n2c1` [IP 3, 2,6-Dimethyl-N-(4-(trifluoromethyl)benzyl)imidazo[1,2-a]pyridine-3-carboxamide], “viable”.
